The source of these data is US12453784B2 (priority 2018, dated 2025).

Series [1] has as its system release of neurotransmitters including acetylcholine, norepinephrine, and glutamate. To be noted: in vivo; cited from earlier work.
The conditions of series [2]: test infusion, 500 μL to each motor cortex.

Take Botulinum toxin type A: the “period of reversible inhibition of neurotransmitter release” value in series [1] was 2-6 months. Take `[Gd]` [gadolinium]: the motor cortical coverage entry in series [2] is given as “satisfactory motor cortical coverage”.
